“Also recorded” adds a separate entry of the source. Bridge positions count the residues as written; N and C are the ends. Ends that are not written are not given here.

One assay concerns I-A^g7-expressing APCs. Kind of assay: Intravenous injection of Alexa Fluor 488-conjugated B:9-23, binding to splenic and thymic APCs by flow cytometry. To be noted: 100 μg intravenously, one hour later. It is filed as in vivo, mice. The protocol: FIG. 11a-FIG. 11c: Characterization of circulating B:9-23 and its localization into lymphoid organs. a, Unmodified synthetic B:9-23 (3 pmol) was spiked into 1 ml PBS, purified using C18 tips, lyophilized, and analyzed by nLC-MS/MS. […] An hour later, spleens and thymi were harvested, digested with liberase and DNase, and binding to splenic and thymic APCs was measured by flow cytometry. b, Representative FACS plots showing the binding of B:9-23 to splenic XCR1^+ and Sirpα^+ dendritic cell (DC) subsets and B cells (top). The bar graph summarizes cumulative results from individual mice (each point), pooled from three independent experiments. ns, not significant; **P<0.05; ***P<0.01; ****P<0.005, two-tailed unpaired Student's t-test. c, Representative FACS plots showing the binding of B:9-23 to thymic XCR1^+ and Sirpα^+ DC subsets and to CD45^− cells expressing MHCII. Data are mean±S.D from five individual mice per strain from two independent experiments.
In general terms: Flow cytometry measures light scatter and fluorescence of single cells or particles in a stream.

Assay [1] addresses T1, insulin receptor (Mus musculus, UniProt P15208). As to the kind of experiment: Antigen presentation assay: ConA-activated peritoneal macrophages treated with S961, insulin pulse, IIT-3 T cell hybridoma. It is filed as cell-based. Particulars: 0.2 or 1 μM S961 for 1 h before insulin; IIT-3 hybridoma, IL-2 production. Details: endogenous in cells; host or cells: ConA-stimulated peritoneal macrophages. The protocol:
(§1) In FIG. 5i, ConA-stimulated peritoneal macrophages were treated with 0.2 or 1 μM S961 for 1 h at 37° C. and were then cultured with the IIT-3 T cell hybridoma that recognizes the 13-21 peptide, in the presence of serially diluted insulin (19278; Sigma). In FIG. 6e, C3g7 cells were treated with chloroquine for 2 h at 37° C., washed, pulsed with the antigens, and cultured with T cell hybridomas. After incubation for 18 h, the culture supernatants were assayed for IL-2 production.

For assay [2], the target named is T1, insulin receptor. As to the kind of experiment: In vivo blockade of insulin receptor by S961 infusion via osmotic pump, blood glucose. Details: from tissue; host or cells: whole animal (NOD mice), in vivo. To be noted: S961 20 nMol/week via osmotic pump, 3-week old NOD mice, versus PBS. The protocol: The S961 peptide ([…] (SEQ ID NO: 33)) was synthesized by LifeTein, with an intrachain disulphide bridge between Cys33 and Cys40 (underlined). S961 (20 nMol/week) or control PBS was filled into the Alzet osmotic pump (2001 model, Durect) and inserted subcutaneously in the back of anaesthetized mice through an incision between scapula. Blood glucose levels were monitored twice a day (Chemstrip 2GP; Roche); mice with a level above 250 mg/dl for two consecutive measurements were considered diabetic.

Assay [3] addresses T1, insulin receptor. Kind of assay: Two-photon imaging motility assay of transferred T cells in lymph nodes of mice infused with S961 or PBS. The class given is in vivo, NOD mice. Also noted: from tissue; host or cells: whole animal (NOD mice), in vivo. Particulars: S961 infusion versus PBS, day 3 post transfer. The protocol: (§2) CFSE- or CMTMR-labelled T cells were mixed 1:1 and were injected intravenously. For all the two-photon experiments, 2×10^6 T cells with either label were transferred. […] All the recipient mice were 3-4-week-old female mice unless otherwise mentioned. For experiments in FIG. 4f, FACS-sorted 8F10 T cells from pooled iLNs of 8-10 NOD or B16A mice were adoptively transferred intravenously into 4-6-week old NOD. Rag1÷ recipients (10^5 cells per mouse).
Lymph nodes were removed, attached to coverslips, placed in CO2-independent medium (Gibco) at room temperature and immediately imaged in a perfusion chamber to simulate blood flow (36.5° C. DMEM; 95% O2 and 5% CO2). […] Fluorescence emission was guided directly to external hybrid photodetectors (Leica/Hamamatsu). […]
(§3) For cell tracking, two or three regions of one lymph node were randomly selected and cropped. […] We also calculated the meandering index and the motility coefficient for each track. […] The mean track velocities (μm/min) were calculated for individual tracks as previously described^11.
The S961 peptide ([…] (SEQ ID NO: 33)) was synthesized by LifeTein, with an intrachain disulphide bridge between Cys33 and Cys40 (underlined). […] Blood glucose levels were monitored twice a day (Chemstrip 2GP; Roche); mice with a level above 250 mg/dl for two consecutive measurements were considered diabetic.

Assay [4] deals with B:13-21-specific IIT-3 and B:12-20-specific 9B9 T cell hybridoma. As to the kind of experiment: T cell hybridoma responses to C3g7 APCs treated with or without chloroquine and pulsed with antigens. It is filed as cell-based. To be noted: C3g7 APCs with or without 100 μM chloroquine for 2 h. The protocol: as §1
Another assay has as its system 10E11 CD4 T cells. Kind of assay: Two-photon motility assay of anti-HEL 10E11 T cells in mice given HEL. To be noted: inguinal lymph nodes, day 3 post transfer, indicated amounts of HEL. The class given is in vivo, NOD mice. Here is the method:
as §2
Lymph nodes were removed, attached to coverslips, placed in CO2-independent medium (Gibco) at room temperature and immediately imaged in a perfusion chamber to simulate blood flow (36.5° C. DMEM; 95% O2 and 5% CO2). Two-photon microscopy images were collected using a customized Leica SP8 Two-Photon Microscope (Leica Microsystems) equipped with a 25× and 0.95 numerical aperture water-immersion objective and a Mai Tai HP DeepSee Laser (Spectra-Physics) tuned to 840 nm. Fluorescence emission was guided directly to external hybrid photodetectors (Leica/Hamamatsu). […]
as §3

T1 sequence (P15208 28-748 limits assumed): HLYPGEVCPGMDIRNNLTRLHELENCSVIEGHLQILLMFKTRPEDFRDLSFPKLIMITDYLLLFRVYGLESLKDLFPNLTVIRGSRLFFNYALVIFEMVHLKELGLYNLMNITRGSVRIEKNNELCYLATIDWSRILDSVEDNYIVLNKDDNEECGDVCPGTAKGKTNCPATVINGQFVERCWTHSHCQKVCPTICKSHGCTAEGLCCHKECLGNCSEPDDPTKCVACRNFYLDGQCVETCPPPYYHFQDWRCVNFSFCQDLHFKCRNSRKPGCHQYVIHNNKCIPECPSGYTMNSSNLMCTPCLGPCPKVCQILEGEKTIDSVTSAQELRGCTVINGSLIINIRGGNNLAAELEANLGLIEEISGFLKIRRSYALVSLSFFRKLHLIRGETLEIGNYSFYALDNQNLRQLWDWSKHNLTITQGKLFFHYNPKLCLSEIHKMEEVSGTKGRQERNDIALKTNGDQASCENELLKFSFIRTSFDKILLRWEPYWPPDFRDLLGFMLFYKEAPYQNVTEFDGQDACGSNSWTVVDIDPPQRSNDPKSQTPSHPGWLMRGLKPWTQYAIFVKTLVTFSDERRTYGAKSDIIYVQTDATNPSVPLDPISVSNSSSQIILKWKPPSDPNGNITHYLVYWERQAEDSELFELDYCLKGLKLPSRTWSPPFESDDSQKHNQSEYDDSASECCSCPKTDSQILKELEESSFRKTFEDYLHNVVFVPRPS
T1 sequence (P15208 753-1372 partner limits assumed): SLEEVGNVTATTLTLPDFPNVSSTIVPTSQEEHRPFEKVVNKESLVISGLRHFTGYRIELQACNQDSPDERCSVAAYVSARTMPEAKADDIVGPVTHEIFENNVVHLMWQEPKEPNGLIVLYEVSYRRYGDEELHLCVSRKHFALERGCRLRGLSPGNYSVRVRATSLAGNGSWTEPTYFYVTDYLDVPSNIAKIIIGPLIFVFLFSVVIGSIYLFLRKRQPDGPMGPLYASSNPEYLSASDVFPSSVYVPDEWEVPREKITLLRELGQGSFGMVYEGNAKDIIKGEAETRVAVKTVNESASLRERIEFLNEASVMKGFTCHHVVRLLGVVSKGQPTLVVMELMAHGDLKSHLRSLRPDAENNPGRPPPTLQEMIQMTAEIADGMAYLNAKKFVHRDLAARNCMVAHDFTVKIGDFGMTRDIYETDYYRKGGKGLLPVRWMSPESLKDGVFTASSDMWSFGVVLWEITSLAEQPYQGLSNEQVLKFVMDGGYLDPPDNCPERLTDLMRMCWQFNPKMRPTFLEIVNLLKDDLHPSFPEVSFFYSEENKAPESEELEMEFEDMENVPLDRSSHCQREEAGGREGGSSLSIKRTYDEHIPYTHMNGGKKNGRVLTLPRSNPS

With “fluorochrome-labelled B:9-23: Alexa Fluor 488-conjugated B:9-23 peptide (SHLVEALYLVCGERG; also: Alexa Fluor 488-conjugated (position not given here))”, in the assay on I-A^g7-expressing APCs, the “display by APCs in spleen” value was “rapidly displayed by I-A^g7-expressing APCs in spleen” and the “display by APCs in thymus” value is “not in thymus”.

On to “S961: insulin receptor antagonist peptide GSLDESFYDWFERQLGGGSGGSSLEEEWAQIQCEVWGRGCPSY (SEQ ID NO: 33), synthesized by LifeTein (disulfide 33-40; listed as Mus musculus)”, for which the “ability of ConA-activated macrophages to present insulin” value with insulin receptor [1] is given as “impaired”. In addition, the blood glucose levels entry with insulin receptor [2] is recorded as “sustained increase in blood glucose levels”. Also, in the assay with insulin receptor [3], the “motility arrest of 8F10 T cells” value is on record as “remained at a comparable level; also recorded: comparable level of motility arrest” and the “reduction in mean velocity (motility) of transferred 4F7 T cells” value was “the magnitude of the reduction was significantly smaller than with PBS; also recorded: partial reduction of the 4F7 T cell motility”.

For the substance “insulin: insulin (19278; Sigma) used as antigen”, the “need for internal processing for T cell reactivity” value in assay [4] is recorded as “require internal processing”.

With “HEL: hen egg lysozyme, control antigen recognized by 10E11 CD4 T cells”, in the assay on 10E11 CD4 T cells, the “10E11 T cell velocities” value is “progressive reduction of the 10E11 T cell velocities as the antigen amount increases”.

On to “B:9-23: insulin B-chain peptide, segment 9-23 (SHLVEALYLVCGERG)”, for which, in assay [4], the “need for internal processing for T cell reactivity” value is listed as “not to B:9-23 or B:1-30 require internal processing”.

Values taken from patent US12153056B2, “Compositions for and methods of diagnosing, prognosing, and treating diabetes” (Washington University, priority 2019, dated 2024).
